ChEMBL document CHEMBL4312021, “Discovery of [1,2,4]-triazolo [1,5-a]pyrimidine-7(4H)-one derivatives as positive modulators of GABAA1 receptor with potent anticonvulsant activity and low toxicity” (Eur J Med Chem, 2020)
Converted amounts (≈) assume the structure as drawn. The source made the active and inactive calls. The rule behind the calls is not given here.

Experiments:
Mus musculus [1] = assay: Anticonvulsant activity in ip dosed CF-1 mouse assessed as reduction in ScPTZ-induced seizure administered before 30 mins of ScPTZ stimulation; assay type: functional; settings: CF-1, ip, 0.5 h
Mus musculus [2] = assay: Anticonvulsant activity in Kunming mouse assessed as reduction in ScPTZ-induced seizure at 100 mg/kg, ip administered before 30 mins of ScPTZ stimulation; assay type: functional, organism-based
Mus musculus [3] = assay: Anticonvulsant activity in Kunming mouse assessed as reduction in MES-induced seizure at 30 to 300 mg/kg, ip measured after 30 mins; assay type: functional, organism-based
Mus musculus [4] = assay: Anticonvulsant activity in Kunming mouse assessed as reduction in ScPTZ-induced seizure at 300 mg/kg, ip administered before 30 mins of ScPTZ stimulation; assay type: functional, organism-based
Mus musculus [5] = assay: Anticonvulsant activity in Kunming mouse assessed as reduction in ScPTZ-induced seizure at 30 mg/kg, ip administered before 30 mins of ScPTZ stimulation; assay type: functional, organism-based
Cortical neurone = assay: Antiepileptic actvity in C57BL/6 mouse Primary cortical neuron assessed as reduction in 4-AP-induced excitability measured for 8 mins by Fluo-8/AM staining based FLIPR assay; assay type: functional, cell-based; settings: C57BL/6, Cortical neurone
[6] = Solubility of compound in water; assay type: physicochemical
[7] = Solubility of compound in DMSO; assay type: physicochemical
Mus musculus [8] = species: Mus musculus; assay: Inhibition of sodium channel in C57BL/6 mouse primary cortical neurons at 10 uM by manual patch clamp electrophysiology method
[9] = Neurotoxicity in ip dosed Kunming mouse assessed as reduction in equilibrium measured after 30 mins by rotarod test; assay type: toxicity, organism-based; settings: in vivo
Mus musculus [10] = species: Mus musculus; assay: Inhibition of sodium channel in C57BL/6 mouse Primary cortical neurons at 100 uM by manual patch clamp electrophysiology method
[11] = molecular target: T1, GABA-A receptor; alpha-1/beta-2/gamma-2 (Homo sapiens, UniProt P14867+P18507+P47870); assay: (§1) Activation of recombinant human GABA receptor alpha1beta2gamma2 expressed in CHO cells in presence of GABA and measured for 120 secs by FMP dye based FLIPR assay; assay type: cell-based
T1 sequence (P14867 whole entry): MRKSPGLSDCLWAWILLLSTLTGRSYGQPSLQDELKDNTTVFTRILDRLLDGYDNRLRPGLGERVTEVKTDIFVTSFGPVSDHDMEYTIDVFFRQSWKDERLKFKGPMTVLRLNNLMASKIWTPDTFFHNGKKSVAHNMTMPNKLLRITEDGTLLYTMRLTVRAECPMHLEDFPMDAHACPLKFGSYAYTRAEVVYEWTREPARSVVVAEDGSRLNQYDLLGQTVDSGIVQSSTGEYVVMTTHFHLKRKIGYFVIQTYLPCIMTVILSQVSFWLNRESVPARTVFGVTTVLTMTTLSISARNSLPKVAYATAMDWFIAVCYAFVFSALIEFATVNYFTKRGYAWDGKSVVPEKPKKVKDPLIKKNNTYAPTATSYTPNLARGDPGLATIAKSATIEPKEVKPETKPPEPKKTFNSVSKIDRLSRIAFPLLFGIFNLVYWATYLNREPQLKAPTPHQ
T1 sequence (P47870 whole entry): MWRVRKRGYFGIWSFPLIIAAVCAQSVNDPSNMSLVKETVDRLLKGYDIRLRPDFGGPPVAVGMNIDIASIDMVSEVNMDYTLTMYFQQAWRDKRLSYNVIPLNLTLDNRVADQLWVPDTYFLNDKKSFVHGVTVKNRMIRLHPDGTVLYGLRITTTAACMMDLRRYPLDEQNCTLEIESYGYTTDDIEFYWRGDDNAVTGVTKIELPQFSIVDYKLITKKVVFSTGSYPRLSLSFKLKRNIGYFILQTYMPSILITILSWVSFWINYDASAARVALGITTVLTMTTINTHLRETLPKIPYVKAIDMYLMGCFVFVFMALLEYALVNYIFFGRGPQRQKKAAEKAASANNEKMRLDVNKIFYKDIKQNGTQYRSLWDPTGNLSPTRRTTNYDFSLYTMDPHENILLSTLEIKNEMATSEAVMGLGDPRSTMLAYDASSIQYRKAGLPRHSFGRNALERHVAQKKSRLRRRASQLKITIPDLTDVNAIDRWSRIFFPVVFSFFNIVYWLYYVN
T1 sequence (P18507 whole entry): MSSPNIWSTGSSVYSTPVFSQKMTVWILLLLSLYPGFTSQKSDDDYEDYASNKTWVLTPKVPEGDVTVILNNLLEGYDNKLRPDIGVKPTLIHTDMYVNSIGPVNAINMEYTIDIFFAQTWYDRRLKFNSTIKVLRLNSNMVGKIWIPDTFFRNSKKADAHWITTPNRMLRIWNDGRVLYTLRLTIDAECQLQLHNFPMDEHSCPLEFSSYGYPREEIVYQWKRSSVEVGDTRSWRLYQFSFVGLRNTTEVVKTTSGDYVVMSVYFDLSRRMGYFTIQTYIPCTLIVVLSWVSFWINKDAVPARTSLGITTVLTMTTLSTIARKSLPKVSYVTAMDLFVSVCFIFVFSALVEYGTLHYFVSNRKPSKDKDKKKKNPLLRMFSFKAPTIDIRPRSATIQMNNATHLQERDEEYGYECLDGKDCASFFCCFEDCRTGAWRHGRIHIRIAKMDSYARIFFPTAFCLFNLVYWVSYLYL

[12] = molecular target: T2, GABA-A receptor; alpha-1/beta-2/gamma-2 (Homo sapiens) (UniProt P14867+P47870+P18507); assay: as §1; assay type: cell-based
[13] = molecular target: T2, GABA-A receptor; alpha-1/beta-2/gamma-2 (Homo sapiens); assay: Activation of recombinant human GABA receptor alpha1beta2gamma2 expressed in CHO cells and measured for 120 secs by FMP dye based FLIPR assay; assay type: cell-based
[14] = molecular target: T1, GABA-A receptor; alpha-1/beta-2/gamma-2; assay: Positive allosteric modulation of recombinant human GABA receptor alpha1beta2gamma2 expressed in CHO cells at 30 uM in presence of GABA and measured for 120 secs by FMP dye based FLIPR assay (reference value: 0.25 +/- 0.03 uM); assay type: cell-based
[15] = Protective index, ratio of TD50 for neurotoxicity in ip dosed Kunming mouse to ED50 for anticonvulsant activity in ip dosed Kunming mouse; assay type: toxicity, organism-based; settings: in vivo, read-out: Ratio TD50/ED50
Mus musculus [16] = assay: Anticonvulsant activity in ip dosed Kunming mouse assessed as reduction in ScPTZ-induced seizure administered before 30 mins of ScPTZ stimulation; assay type: functional; settings: 0.5 h

SMILES | Activity (Mus musculus [2]) | Activity (Mus musculus [3]) | Activity (Mus musculus [4]) | Activity (Mus musculus [5]) | IC50 (Cortical neurone) [µM] | further results
CCC1(c2ccccc2)C(=O)NC(=O)NC1=O [PHENOBARBITAL] |  |  |  |  |  | ED50 (Mus musculus [1]): 13.2 mg/kg
CCCCc1nc2[nH]c(-c3ccccc3)cc(=O)n2n1 | inactive | inactive | inactive | inactive |  | 
O=c1cc(Cc2ccc(Cl)cc2)[nH]c2nc(Cc3ccccc3)nn12 | inactive | inactive | Active | inactive |  | 
O=c1cc(Cc2ccc(Cl)cc2)[nH]c2nc(Cc3ccc(F)cc3)nn12 | Active | inactive | Active | inactive | 3.65 | 
Cc1ccc(Cc2nc3[nH]c(Cc4ccccc4)cc(=O)n3n2)cc1 | Active | inactive | Active | Active | 2.47 | 
CCCCCc1nc2[nH]c(-c3ccccc3)cc(=O)n2n1 | inactive | inactive | inactive | inactive |  | 
Cc1ccc(Cc2cc(=O)n3nc(-c4ccccc4)nc3[nH]2)cc1 | inactive | inactive | inactive | inactive |  | 
CCCCCCCc1nc2[nH]c(-c3ccccc3)cc(=O)n2n1 | inactive | inactive | inactive | inactive |  | 
O=c1cc(-c2ccc(Cl)cc2)[nH]c2nc(-c3ccccc3)nn12 |  |  |  |  | 2.35 | solubility [6]: 14.3 µg/mL (≈ 0.0443 mM); solubility [7]: 3000 µg/mL (≈ 9.29 mM)
Cc1ccc(Cc2cc(=O)n3nc(-c4ccc(C)cc4)nc3[nH]2)cc1 | inactive | inactive | inactive | inactive |  | 
Cc1ccc(-c2nc3[nH]c(-c4ccccc4)cc(=O)n3n2)cc1 |  |  |  |  | 3.21 | solubility [6]: 14.3 µg/mL (≈ 0.0473 mM); solubility [7]: 3000 µg/mL (≈ 9.92 mM)
O=c1cc(Cc2ccc(Cl)cc2)[nH]c2nc(-c3ccccc3)nn12 | Active | inactive | Active | Active | 0.452 | inhibition (Mus musculus [8]): inactive; TD50 at 0.5 h [9]: 548 mg/kg; inhibition (Mus musculus [10]): inactive; EC50 [11]: 3.08 µM; Activity [12]: Dose-dependent effect; Activity [13]: inactive; EC50 [14]: 0.2 µM; selectivity ratio [15]: 17.2; ED50 (Mus musculus [16]): 31.8 mg/kg
O=c1cc(-c2ccccc2)[nH]c2nc(Cc3ccc(F)cc3)nn12 | Active | inactive | Active | Active | 2.52 | TD50 at 0.5 h [9]: 261 mg/kg; selectivity ratio [15]: 3.67; ED50 (Mus musculus [16]): 71.6 mg/kg
CCCCc1nc2[nH]c(-c3ccc(Cl)cc3)cc(=O)n2n1 | inactive | inactive | inactive | inactive |  | 
O=c1cc(-c2ccc(Cl)cc2)[nH]c2nc(Cc3ccccc3)nn12 | inactive | inactive | inactive | inactive |  | 
O=c1cc(-c2ccccc2)[nH]c2nc(Cc3ccc(Cl)cc3)nn12 | Active | inactive | Active | Active | 1.83 | TD50 at 0.5 h [9]: 211 mg/kg; selectivity ratio [15]: 3.45; ED50 (Mus musculus [16]): 61.1 mg/kg

SMILES | Activity (Mus musculus [2]) | Activity (Mus musculus [3]) | Activity (Mus musculus [4]) | Activity (Mus musculus [5]) | IC50 (Cortical neurone) [µM] | further results
Cc1ccc(Cc2nc3[nH]c(-c4ccccc4)cc(=O)n3n2)cc1 | Active | inactive | Active | Active | 1.15 | TD50 at 0.5 h [9]: 281 mg/kg; selectivity ratio [15]: 4.26; ED50 (Mus musculus [16]): 65.8 mg/kg
O=c1cc(-c2ccccc2)[nH]c2nc(Cc3ccccc3)nn12 | Active | inactive | Active | Active | 1.31 | 
CCCC(CCC)C(=O)O [VALPROIC ACID] |  |  |  |  |  | ED50 (Mus musculus [1]): 149 mg/kg
NC(=O)N1c2ccccc2C=Cc2ccccc21 [CARBAMAZEPINE] |  |  |  |  |  | ED50 (Mus musculus [1]): > 100 mg/kg
O=C1NC(=O)C(c2ccccc2)(c2ccccc2)N1 [PHENYTOIN] |  |  |  |  |  | ED50 (Mus musculus [1]): > 300 mg/kg
O=c1cc(Cc2ccccc2)[nH]c2nc(Cc3ccc(Cl)cc3)nn12 | Active | inactive | inactive | inactive | 4.28 | 
Cc1ccc(Cc2nc3[nH]c(-c4ccc(Cl)cc4)cc(=O)n3n2)cc1 | inactive | inactive | inactive | inactive | 5.44 | 
CCCCCCc1nc2[nH]c(-c3ccc(Cl)cc3)cc(=O)n2n1 | Active | inactive | Active | Active | 8.72 | 
CCCCCCCc1nc2[nH]c(-c3ccc(Cl)cc3)cc(=O)n2n1 | inactive | inactive | inactive | inactive |  | 
Cc1ccc(Cc2cc(=O)n3nc(Cc4ccccc4)nc3[nH]2)cc1 | inactive | inactive | inactive | inactive |  | 
CCCCCCc1nc2[nH]c(-c3ccccc3)cc(=O)n2n1 | inactive | inactive | inactive | inactive |  | 
Cc1ccc(-c2nc3[nH]c(Cc4ccc(F)cc4)cc(=O)n3n2)cc1 | inactive | inactive | inactive | inactive |  | 
O=c1cc(Cc2ccccc2)[nH]c2nc(Cc3ccccc3)nn12 | inactive | inactive | inactive | inactive |  | 
Cc1ccc(-c2nc3[nH]c(Cc4ccc(Cl)cc4)cc(=O)n3n2)cc1 | inactive | inactive | Active | inactive |  | 
CCCCCc1nc2[nH]c(-c3ccc(Cl)cc3)cc(=O)n2n1 | Active | inactive | inactive | Active | 8.25 | 
O=c1cc(Cc2ccccc2)[nH]c2nc(Cc3ccc(F)cc3)nn12 | inactive | inactive | inactive | inactive |  | 
